# In patent US20050238577A1, “Isolation of epithelial cells or their biochemical contents from excreta after in vivo isotopic labeling” (The Regents of the University of California, priority 2004, published 2005):
# Assay: Tolerability of maintained 2H2O body water enrichment
# Assay type: in vivo
# Conditions: 1-10% of total body water labeled, maintained for weeks or months in humans (>100 people) and experimental animals; rapid changes in enrichment prevented
# Description: Relatively high body water enrichments of ^2H2O (e.g., 1-10% of the total body water is labeled) may be achieved relatively inexpensively using the techniques of the invention. […] This finding in a large number of human subjects (>100 people) is contrary to previous concerns about vestibular toxicities at high doses of ^2H2O. The Applicant has discovered that as long as rapid changes in body water enrichment are prevented (e.g., by initial administration in small, divided doses), high body water enrichments of ^2H2O can be maintained with no toxicities. For example, the low expense of commercially available ^2H2O allows long-term maintenance of enrichments in the 1-5% range at relatively low expense (e.g., calculations reveal a lower cost for 2 months labeling at 2% ^2H2O enrichment, and thus 7-8% enrichment in the alanine precursor pool, than for 12 hours labeling of ^2H-leucine at 10% free leucine enrichment, and thus 7-8% enrichment in leucine precursor pool for that period).
structure (smiles),measurement,value
"[2H]O[2H] [^2H2O, deuterated water]",toxicity at maintained body water enrichment,without any evidence of toxicity
